# Source: patent US11584766B2, “Nicotinamide phosphoribosyltransferase inhibitors and methods for use of the same” (THE TRUSTEES OF INDIANA UNIVERSITY, priority 2018, dated 2023)
# “Also recorded” adds a separate entry of the source. Where two headings read alike, the source gives them in different places.
# Tests used:
# [1] = tested on: vascular remodeling caused by PAH; conditions: rat models; cited from earlier work
# NAMPT = target: T1, NAMPT (Homo sapiens, UniProt P43490); assay: CycLex NAMPT Colorimetric Assay; format: biochemical; conditions: for IC50: CycLex NAMPT Colorimetric Assay Kit, read-out: NAMPT Inhibition IC50
# T1 construct: purchased MBL International Corporation (CycLex NAMPT Colorimetric Assay Kit Ver.2)
# T1 sequence (P43490 whole entry): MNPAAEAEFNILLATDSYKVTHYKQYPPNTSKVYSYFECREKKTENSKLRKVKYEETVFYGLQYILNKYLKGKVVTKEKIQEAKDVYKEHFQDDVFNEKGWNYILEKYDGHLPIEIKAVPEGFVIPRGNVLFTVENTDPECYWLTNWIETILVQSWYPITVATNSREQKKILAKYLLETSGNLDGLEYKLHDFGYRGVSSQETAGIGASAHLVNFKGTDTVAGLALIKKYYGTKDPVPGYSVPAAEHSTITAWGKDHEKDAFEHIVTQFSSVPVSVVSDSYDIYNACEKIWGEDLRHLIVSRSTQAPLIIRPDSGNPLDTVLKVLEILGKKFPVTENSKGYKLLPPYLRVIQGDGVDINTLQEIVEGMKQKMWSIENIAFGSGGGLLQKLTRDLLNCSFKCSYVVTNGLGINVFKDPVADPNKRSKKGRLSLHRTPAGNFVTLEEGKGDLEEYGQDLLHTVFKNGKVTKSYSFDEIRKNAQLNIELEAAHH
# Method: The ability of the compounds of the disclosure to inhibit NAMPT was determined using the CycLex NAMPT Colorimetric Assay Kit Ver.2 by MBL International Corporation.
# The assay detects NAMPT activity in recombinant NAMPT or endogenous NAMPT immunoprecipiated from cell lysates according to the scheme shown in FIG. 3. In this method, NAMPT converts nicotinamide to nicotinamide mononucleotide (“NMN”). Subsequently, nicotinamide mononucleotide adenylyltransferase 1 (“NMNAT1”) converts NMN to NAD^+. Resultant NAD^+ can be measured by enzyme cycling reaction using alcohol dehydrogenase (“ADH”), diaphorase and WST-1.
# [2] = Solubility (2.5% v/v DMSO/water); format: physicochemical
# [3] = tested on: human pulmonary artery smooth muscle cells (hPASMCs); assay: PrestoBlue Assay (viability), hPASMC; format: cell-based; conditions: for effect on HPASMC viability: dose response, FIG. 8; for IC50: hPASMC, 24 h treatment
# Method: (§1) The effect of the compounds disclosed herein on the viability, proliferation, and apoptosis of human pulmonary artery endothelial cells (“hPAECs,”) and human pulmonary artery smooth muscle cells (“hPASMCs”) was determined using the PrestoBlue Assay (viability), CYQuant Direct or BrdU Assay (proliferation) or Tunel Assay (apoptosis), as described below.
# (§2) HPAECs (1×10^4 cells/well) or HPASMCs (2.5×10^3 cells/well) were seeded in 96-well plates for 24 h in full-serum tissue culture medium. The full medium was removed prior to treatment with a NAMPT inhibitor prepared in medium containing 0.1% serum. NAMPT inhibitors were solubilized in 100% DMSO, unless otherwise indicated, prior to preparation of the dose response curve in 100% DMSO. The treatment dose response curve was diluted in 0.1% serum tissue culture medium and administered to cells for 24 h. DMSO diluted in the same medium was used as the vehicle control. Cell viability was measured according to the manufacturer's protocol by adding the PrestoBlue Cell Viability Reagent (ThermoFisher Scientific, #A13261) to cells for 20 min at 37° C. in a tissue culture incubator, followed by reading fluorescence at ex560/em590. Cell proliferation was measured, either in the same wells or in separate experiments, by adding the CyQuant Direct Confirmation Reagent (ThermoFisher Scientific, #C35011) for 1 h at 37° C. in a tissue culture incubator, followed by reading fluorescence at ex485/em538. Proliferation was also measured, in separate experiments, using the BrdU Cell Proliferation Assay (Calbiochem, #QIA58). After treatment with a NAMPT inhibitor for 24 h, BrdU was added to the cells in the presence of the inhibitor, for an additional 24 h and BrdU incorporation was detected according to the manufacturer's protocol. Apoptosis was analyzed by seeding cells (1×10^5 cells/well) in 6-well plates for 24 h in full-serum medium, followed by treatment with a NAMPT inhibitor for 24 h in full-serum medium. Tunel staining and detection was performed using the Tunel Assay Kit (Abcam, #ab66110) according to the manufacturer's protocol.
# [4] = tested on: human pulmonary artery smooth muscle cells (hPASMCs); assay: CyQUANT Direct Assay (proliferation), hPASMC; format: cell-based; conditions: dose response, FIG. 9
# Method: as §1, §2
# [5] = tested on: human pulmonary artery endothelial cells (hPAECs); assay: PrestoBlue Assay (viability), hPAEC; format: cell-based; conditions: for effect on HPAEC viability: dose response, FIG. 4; for IC50: hPAEC, 24 h treatment
# Method: as §1, §2
# [6] = tested on: human pulmonary artery endothelial cells (hPAECs); assay: CyQUANT Direct Assay (proliferation), hPAEC; format: cell-based; conditions: for effect on HPAEC proliferation (CYQuant Direct assay): dose response, FIG. 5; for IC50: hPAEC, 24 h treatment
# Method: as §1, §2
# [7] = tested on: human pulmonary artery endothelial cells (hPAECs); assay: BrdU Assay (proliferation), hPAEC; format: cell-based; conditions: dose response, FIG. 6
# Method: as §1, §2
# [8] = tested on: human pulmonary artery smooth muscle cells (hPASMCs); assay: BrdU Assay (proliferation), hPASMC; format: cell-based
# Method: as §1, §2
# [9] = tested on: human pulmonary artery endothelial cells (hPAECs); assay: Tunel Assay (apoptosis), hPAEC; format: cell-based; conditions: for IC50: hPAEC; for effect on HPAEC apoptosis: dose response, FIG. 7
# Method: as §1, §2
# [10] = tested on: human pulmonary artery smooth muscle cells (hPASMCs); assay: Tunel Assay (apoptosis), hPASMC; format: cell-based
# Method: as §1
# HPAECs (1×10^4 cells/well) or HPASMCs (2.5×10^3 cells/well) were seeded in 96-well plates for 24 h in full-serum tissue culture medium. The full medium was removed prior to treatment with a NAMPT inhibitor prepared in medium containing 0.1% serum. NAMPT inhibitors were solubilized in 100% DMSO, unless otherwise indicated, prior to preparation of the dose response curve in 100% DMSO. […] Cell viability was measured according to the manufacturer's protocol by adding the PrestoBlue Cell Viability Reagent (ThermoFisher Scientific, #A13261) to cells for 20 min at 37° C. in a tissue culture incubator, followed by reading fluorescence at ex560/em590. Cell proliferation was measured, either in the same wells or in separate experiments, by adding the CyQuant Direct Confirmation Reagent (ThermoFisher Scientific, #C35011) for 1 h at 37° C. in a tissue culture incubator, followed by reading fluorescence at ex485/em538. Proliferation was also measured, in separate experiments, using the BrdU Cell Proliferation Assay (Calbiochem, #QIA58). […]
# HepG2 cells = assay: Seahorse XF Metabolism Assay (Cell Energy Phenotype Test); format: cell-based; parameters: Baseline OCR / Stressed OCR / Baseline ECAR / Stressed ECAR: unit not given here
# Method: The effect of the compounds disclosed herein on metabolism was determined using the Seahorse XF Cell Energy Phenotype Test Kit by Agilent Technologies. See Agilent Seahorse XF Cell Energy Phenotype Test Kit, User Guide, Manual Part Number 103325-400, Kit Part Number 103325-100, First Edition, March 2017 Agilent Technologies, Inc. This assay measures mitochondrial respiration and glycolysis under baseline and stressed conditions to determine baseline phenotype, stressed phenotype, and metabolic potential.
# [11] = tested on: monocrotaline (MCT)-induced pulmonary hypertension; assay: MCT-induced pulmonary hypertension in rats; format: in vivo, rat; conditions: 5 mg/kg every other day IP, days 22-35
# Method: (§3) The ability of the compounds disclosed herein to attenuate pulmonary vascular remodeling associated with pulmonary arterial hypertension was determined using monocrotaline (“MCT”)-induced pulmonary hypertension as well as Sugen-Hypoxia-induced pulmonary hypertension in rats.
# MCT 60 mg/kg IP was injected in Sprague Dawley rats. After 21 days when PH was established DGMS-RARI (5 mg/kg every other day) was injected intraperitonealy from days 22-35. At day 35 PH assessments (RVSP measurements via right heart catheterization, RVH measurement via assessment of the ratio between the weight of the right ventricle over the weight of the left ventricle+septum and pulmonary vascular remodeling assessment of H&E stained pulmonary arteries) were performed.
# [12] = tested on: Sugen-Hypoxia-induced pulmonary hypertension; assay: Sugen-Hypoxia-induced pulmonary hypertension in rats; format: in vivo, rat; conditions: 5 mg/kg every other day IP, days 35-49
# Method: as §3
# Sugen 10 mg/kg IP was injected in Sprague Dawley rats who were then exposed to 10% hypoxia for 21 days. After 21 rats were returned to normoxia for 14 days. After 35 when PH was established DGMS-RARI (5 mg/kg every other day) was injected intraperitonealy from days 35-49. At day 49 PH assessments (RVSP measurements via right heart catheterization, RVH measurement via assessment of the ratio between the weight of the right ventricle over the weight of the left ventricle+septum and assessment of right ventricular function via echocardiography) were performed.
# [13] = Plasma concentration and biochemical parameters in MCT-induced rats; format: in vivo, rat
# From the text: Moreover, significant abnormalities in biochemical parameters and electrolytes were not observed.
# [14] = in vivo; cited from earlier work
# [15] = Homo sapiens, Endothelial cell, 24 h
structure (smiles),measurement,setting,value
N#CN=C(NCCCCCCOc1ccc(Cl)cc1)Nc1ccncc1 [CHS-828],vascular remodeling caused by PAH,[1],prevent and reverse
CC[Si]1(CC)c2ccccc2N(C(=O)CCCCCNC(=O)/C=C/c2cccnc2)C1C.Cl (centres unmarked) [DGMS-RAR-5•HCl],inhibition at 10 µM,NAMPT; 10 μM,98%
same,IC50,NAMPT,0.023 µM
same,Solubility (2.5% v/v DMSO/water),[2],Good
same,effect on HPASMC viability,[3],dose-dependently decrease cell viability
same,effect on HPASMC proliferation (CYQuant Direct assay),[4],dose-dependently decrease cell proliferation
Cl.O=C(/C=C/c1cccnc1)NCCCCCC(=O)N1c2ccccc2CC1c1ccccc1 (centres unmarked) [DGMS-RAR-7•HCl],IC50,NAMPT,0.015 µM
same,Solubility (2.5% v/v DMSO/water),[2],Good
same,effect on HPAEC viability,[5],dose-dependently decrease cell viability; also recorded: reduction
same,IC50,[5],13.9 µM
same,IC50,"[3]; Homo sapiens, 24 h",31.1 µM
same,effect on HPASMC viability,[3],dose-dependently decrease cell viability
same,effect on HPAEC proliferation (CYQuant Direct assay),[6]; listed as DGMS-RAR-7-HCl,dose-dependently decrease cell proliferation
same,effect on HPAEC proliferation (CYQuant Direct assay),[6]; listed as DGMS-RAR-7.HCl,reduction
same,IC50,[6],26.6 µM
same,effect on HPASMC proliferation (CYQuant Direct assay),[4],dose-dependently decrease cell proliferation
same,effect on HPAEC proliferation (BrdU assay),[7],dose-dependently decrease cell proliferation
same,IC50,[8],63.9 µM
same,IC50,"[9]; Homo sapiens, Endothelial cell",183 µM
same,effect on HPAEC apoptosis,[9],dose-dependently decrease apoptosis
same,IC50,[10]; Homo sapiens,116 µM
O=C(/C=C/c1cccnc1)NCCCCCC(=O)N1c2ccccc2CC1c1ccccc1 (centres unmarked) [DGMS-RAR-7•HO3SMe],effect on HPAEC viability,[5],dose-dependently decrease cell viability; also recorded: reduction
same,IC50,[5],17.1 µM
same,effect on HPASMC viability,[3],dose-dependently decrease cell viability
same,IC50,[3],26.6 µM
same,effect on HPAEC proliferation (CYQuant Direct assay),[6]; listed as DGMS-RAR-7-HO3SMe,dose-dependently decrease cell proliferation
same,effect on HPAEC proliferation (CYQuant Direct assay),[6]; listed as DGMS-RAR-7.HO3SMe,reduction
same,IC50,[6],31.9 µM
same,effect on HPASMC proliferation (CYQuant Direct assay),[4],dose-dependently decrease cell proliferation
same,effect on HPAEC proliferation (BrdU assay),[7],dose-dependently decrease cell proliferation
same,effect on HPAEC apoptosis,[9],dose-dependently decrease apoptosis
same,IC50,[9],117 µM
same,IC50,[10],94.1 µM
O=C(/C=C/c1cccnc1)NCCCCCCn1c(-c2ccccc2)cc2ccccc21 [DGMS-RARI],inhibition at 10 µM,NAMPT,98%
same,IC50,NAMPT,0.014 µM
same,IC50,[5]; [15],117 µM
same,effect on HPAEC viability,[5],dose-dependently decrease cell viability
same,effect on HPASMC viability,[3],dose-dependently decrease cell viability
same,IC50,[6]; [15],2.88 µM
same,effect on HPAEC proliferation (CYQuant Direct assay),[6],dose-dependently decrease cell proliferation
same,Baseline ECAR,"HepG2 cells; HepG2, 80 nM",16.16
same,Baseline OCR,"HepG2 cells; HepG2, 80 nM",98.19
same,Metabolic Potential (% Baseline ECAR),"HepG2 cells; HepG2, 80 nM",288.54 % Baseline ECAR
same,Metabolic Potential (% Baseline OCR),"HepG2 cells; HepG2, 80 nM",154.82 % Baseline OCR
same,Stressed ECAR,"HepG2 cells; HepG2, 80 nM",46.64
same,Stressed OCR,"HepG2 cells; HepG2, 80 nM",152.08
same,Baseline ECAR,"HepG2 cells; HepG2, 2 uM",12.28
same,Baseline OCR,"HepG2 cells; HepG2, 2 uM",73.92
same,Metabolic Potential (% Baseline ECAR),"HepG2 cells; HepG2, 2 uM",334.84 % Baseline ECAR
same,Metabolic Potential (% Baseline OCR),"HepG2 cells; HepG2, 2 uM",154.18 % Baseline OCR
same,Stressed ECAR,"HepG2 cells; HepG2, 2 uM",37.11
same,Stressed OCR,"HepG2 cells; HepG2, 2 uM",111.06
same,Baseline ECAR,"HepG2 cells; HepG2, 10 uM",18.28
same,Baseline OCR,"HepG2 cells; HepG2, 10 uM",60.26
same,Metabolic Potential (% Baseline ECAR),"HepG2 cells; HepG2, 10 uM",194.22 % Baseline ECAR
same,Metabolic Potential (% Baseline OCR),"HepG2 cells; HepG2, 10 uM",148.94 % Baseline OCR
same,Stressed ECAR,"HepG2 cells; HepG2, 10 uM",31.23
same,Stressed OCR,"HepG2 cells; HepG2, 10 uM",89.62
same,inhibition at 10 µM,"HepG2 cells; Homo sapiens, HepG2 cells, high doses (10 uM), read-out: inhibition of the maximal oxygen consumption rate",~30%
same,effect on cellular respiration,HepG2 cells; physiological doses (≤80 nM),no effect on cellular respiration
same,degree of pulmonary vascular remodeling,[11],decreased
same,degree of right ventricular hypertrophy,[11],decreased
same,severity of elevations in RVSP,[11],decreased
same,degree of right ventricular dysfunction,[12],decreased
same,degree of right ventricular hypertrophy,[12],decreased
same,severity of elevations in RVSP,[12],decreased
same,abnormalities in biochemical parameters and electrolytes,[13]; 5 mg/kg,not observed
same,average concentration in rat plasma,"[13]; 5 mg/kg intravenously, intraperitoneally and orally",decreased with time
O=C(/C=C/c1cccnc1)NCCCCC1CCN(C(=O)c2ccccc2)CC1 [FK866],IC50,[6]; [15],60.3 µM
same,vascular remodeling caused by PAH,[1],prevent and reverse
same,renal toxicity,[14],exhibit renal toxicity
